Measurements as given in PMC12186298, “Phase 1 clinical trial of eneboparatide, a novel PTH receptor 1 agonist” (Endocrine Connections, 2025).
Peptide text beside a SMILES is read from it.

Legend:
healthy subjects [1] = assay: Pharmacodynamics (serum calcium, phosphorus, endogenous PTH, urine, bone markers), Part B MAD; format: in vivo, human
Protocol: Blood samples were taken on day 1 at pre-dose, at several time points post-dose up to day 4 and at FU (Part A), on day 1–14 (pre-dose), and day 15–17 and at FU (Part B) for the analysis of total sCa, albumin-adjusted serum calcium (ADsCa), and sPh. These parameters were also measured on day 1, 7 and 14 at several time points post-dose. Samples for serum creatinine were taken at predefined time points to allow for calculation of fractional excretion of calcium (FECa). Endogenous serum PTH(1–84) was measured on day 1 (pre-dose and 12 h post-dose), day 2–4 and at FU (Part A), on pre-dose on day 1, 7, and 14 and on day 15–17 and FU (Part B). In Part B, additional blood samples were taken on day 1, day 14 and at FU for the analysis of serum bone turnover biomarkers, including carboxy-terminal telopeptide of type I collagen (s-CTx), and procollagen type 1 amino-terminal propeptide (P1NP).
Urine collection was performed over 24 h for the analysis of calcium and creatinine on day 1–3 and at FU (Part A) and day 1, day 7, day 14 and at FU (Part B). FECa (%) was calculated by the formula: FECa = (urine calcium/serum calcium)/(urine creatinine/serum creatinine).

animal models of HP = conditions: cited from earlier work
healthy subjects [2] = assay: Safety and tolerability, adverse events, Part A SAD; format: in vivo, human
Protocol: Seven sequential cohorts were included in Part A. The first cohort was single-blind and included four subjects, of which three subjects were randomized to receive 5 μg eneboparatide and one subject was randomized to receive placebo. […] Subjects in Part A were admitted to the phase 1 study centre on day 1 and received the study drug at the clinical site on day 1 as a single, subcutaneous abdominal injection in the morning. They were discharged on day 4 and were asked to return for a follow-up (FU) visit on day 5–8.

CC[C@H](C)[C@H](NC(=O)[C@H](CCC(=O)O)NC(=O)[C@H](C)NC(=O)[C@@H](NC(=O)[C@H](Cc1c[nH]cn1)NC(=O)[C@@H](NC(=O)[C@H](CCC(=O)O)NC(=O)[C@H](C)NC(=O)[C@@H](NC(=O)[C@H](CC(C)C)NC(=O)[C@H](CCCCN)NC(=O)[C@H](Cc1c[nH]cn1)NC(=O)[C@H](CC(C)C)NC(=O)[C@H](Cc1ccccc1)NC(=O)[C@H](C)NC(=O)[C@H](CCCNC(=N)N)NC(=O)[C@H](CCCNC(=N)N)NC(=O)[C@H](CCCNC(=N)N)NC(=O)[C@H](C)NC(=O)[C@H](CC(=O)O)NC(=O)[C@H](CCC(N)=O)NC(=O)[C@@H](NC(=O)[C@H](Cc1c[nH]c2ccccc12)NC(=O)[C@H](CCCCN)NC(=O)[C@H](C)NC(=O)[C@H](CCCNC(=N)N)NC(=O)[C@H](CCC(N)=O)NC(=O)[C@H](Cc1c[nH]cn1)NC(=O)[C@H](CCSC)NC(=O)[C@H](CC(C)C)NC(=O)[C@H](CCC(N)=O)NC(=O)[C@@H](NC(=O)[C@H](CCC(=O)O)NC(=O)[C@H](C)NC(=O)[C@@H](NC(=O)[C@H](C)N)C(C)C)[C@@H](C)CC)[C@@H](C)CC)[C@@H](C)CC)[C@@H](C)CC)[C@@H](C)O)C(=O)O [eneboparatide] (H-AVAEIQLMHQRAKWIQDARRRAFLHKLIAEIHTAEI-OH; N-terminus and C-terminus assumed)
endogenous sPTH compared to placebo (healthy subjects [1]): rapidly and dose-dependently declined | time for ADsCa to return to near baseline after cessation of treatment (healthy subjects [1]; 80 μg dose): ~3 days | subjects with transient hypercalcaemia in whom urinary excretion of calcium remained normal (healthy subjects [1]; 80 μg/d): five of the six | mean 24 h-uCa (healthy subjects [1]; 14 days of treatment): not associated with an increase | time mean sPh remained lower compared to placebo (healthy subjects [1]; after 14 days of treatment, high-dose groups (above 40 μg/day)): 12 to 20 h | FECa (healthy subjects [1]; all doses): below 1.5% | repeated sCa measurements throughout 24 h post-dosing (healthy subjects [1]; days 7 and 14, all doses): stable values with little variation | time for ADsCa to return to near baseline after cessation of treatment (healthy subjects [1]; doses up to 60 μg): approximately 2 days | time to stable ADsCa levels after the first administration (healthy subjects [1]; doses up to 60 μg): approximately 2 days | serum levels of P1NP and CTX (healthy subjects [1]; increasing doses for 14 consecutive days): did not alter | serum calcium, urinary calcium excretion and bone resorption biomarkers (animal models of HP): robust and sustained increases in serum calcium without increasing urinary calcium excretion or bone resorption biomarkers | vomiting, subjects (healthy subjects [2]): none | Catheter site haematoma, subjects with TEAE (healthy subjects [2]; single sc 5 μg, n = 3): 0 | Decreased appetite, subjects with TEAE (healthy subjects [2]; single sc 5 μg, n = 3): 0 | Fatigue, subjects with TEAE (healthy subjects [2]; single sc 5 μg, n = 3): 0 | Headache, subjects with TEAE (healthy subjects [2]; single sc 5 μg, n = 3): 1 | Injection site erythema, subjects with TEAE (healthy subjects [2]; single sc 5 μg, n = 3): 0 | Injection site pain, subjects with TEAE (healthy subjects [2]; single sc 5 μg, n = 3): 0 | Nausea, subjects with TEAE (healthy subjects [2]; single sc 5 μg, n = 3): 0 | Somnolence, subjects with TEAE (healthy subjects [2]; single sc 5 μg, n = 3): 0 | Catheter site haematoma, subjects with TEAE (healthy subjects [2]; single sc 10 μg, n = 6): 1 | Decreased appetite, subjects with TEAE (healthy subjects [2]; single sc 10 μg, n = 6): 0 | Fatigue, subjects with TEAE (healthy subjects [2]; single sc 10 μg, n = 6): 1 | Headache, subjects with TEAE (healthy subjects [2]; single sc 10 μg, n = 6): 1 | Injection site erythema, subjects with TEAE (healthy subjects [2]; single sc 10 μg, n = 6): 0 | Injection site pain, subjects with TEAE (healthy subjects [2]; single sc 10 μg, n = 6): 0 | Nausea, subjects with TEAE (healthy subjects [2]; single sc 10 μg, n = 6): 0 | Somnolence, subjects with TEAE (healthy subjects [2]; single sc 10 μg, n = 6): 0 | Catheter site haematoma, subjects with TEAE (healthy subjects [2]; single sc 20 μg, n = 6): 0 | Decreased appetite, subjects with TEAE (healthy subjects [2]; single sc 20 μg, n = 6): 1 | Fatigue, subjects with TEAE (healthy subjects [2]; single sc 20 μg, n = 6): 1 | Headache, subjects with TEAE (healthy subjects [2]; single sc 20 μg, n = 6): 1 | Injection site erythema, subjects with TEAE (healthy subjects [2]; single sc 20 μg, n = 6): 0 | Injection site pain, subjects with TEAE (healthy subjects [2]; single sc 20 μg, n = 6): 1 | Nausea, subjects with TEAE (healthy subjects [2]; single sc 20 μg, n = 6): 0 | Somnolence, subjects with TEAE (healthy subjects [2]; single sc 20 μg, n = 6): 0 | Catheter site haematoma, subjects with TEAE (healthy subjects [2]; single sc 40 μg, n = 6): 0 | Decreased appetite, subjects with TEAE (healthy subjects [2]; single sc 40 μg, n = 6): 0 | Fatigue, subjects with TEAE (healthy subjects [2]; single sc 40 μg, n = 6): 0 | Headache, subjects with TEAE (healthy subjects [2]; single sc 40 μg, n = 6): 0 | Injection site erythema, subjects with TEAE (healthy subjects [2]; single sc 40 μg, n = 6): 0 | Injection site pain, subjects with TEAE (healthy subjects [2]; single sc 40 μg, n = 6): 0 | Nausea, subjects with TEAE (healthy subjects [2]; single sc 40 μg, n = 6): 0 | Somnolence, subjects with TEAE (healthy subjects [2]; single sc 40 μg, n = 6): 0 | Catheter site haematoma, subjects with TEAE (healthy subjects [2]; single sc 60 μg, n = 6): 0 | Decreased appetite, subjects with TEAE (healthy subjects [2]; single sc 60 μg, n = 6): 0 | Fatigue, subjects with TEAE (healthy subjects [2]; single sc 60 μg, n = 6): 1 | Headache, subjects with TEAE (healthy subjects [2]; single sc 60 μg, n = 6): 0 | Injection site erythema, subjects with TEAE (healthy subjects [2]; single sc 60 μg, n = 6): 0 | Injection site pain, subjects with TEAE (healthy subjects [2]; single sc 60 μg, n = 6): 0 | Nausea, subjects with TEAE (healthy subjects [2]; single sc 60 μg, n = 6): 1 | Somnolence, subjects with TEAE (healthy subjects [2]; single sc 60 μg, n = 6): 0 | Catheter site haematoma, subjects with TEAE (healthy subjects [2]; single sc 90 μg, n = 6): 1 | Decreased appetite, subjects with TEAE (healthy subjects [2]; single sc 90 μg, n = 6): 2 | Fatigue, subjects with TEAE (healthy subjects [2]; single sc 90 μg, n = 6): 0 | Headache, subjects with TEAE (healthy subjects [2]; single sc 90 μg, n = 6): 2 | Injection site erythema, subjects with TEAE (healthy subjects [2]; single sc 90 μg, n = 6): 2 | Injection site pain, subjects with TEAE (healthy subjects [2]; single sc 90 μg, n = 6): 2 | Nausea, subjects with TEAE (healthy subjects [2]; single sc 90 μg, n = 6): 3 | Somnolence, subjects with TEAE (healthy subjects [2]; single sc 90 μg, n = 6): 1 | Catheter site haematoma, subjects with TEAE (healthy subjects [2]; single sc 120 μg, n = 6): 1 | Decreased appetite, subjects with TEAE (healthy subjects [2]; single sc 120 μg, n = 6): 3 | Fatigue, subjects with TEAE (healthy subjects [2]; single sc 120 μg, n = 6): 0 | Headache, subjects with TEAE (healthy subjects [2]; single sc 120 μg, n = 6): 3 | Injection site erythema, subjects with TEAE (healthy subjects [2]; single sc 120 μg, n = 6): 0 | Injection site pain, subjects with TEAE (healthy subjects [2]; single sc 120 μg, n = 6): 0 | Nausea, subjects with TEAE (healthy subjects [2]; single sc 120 μg, n = 6): 4 | Somnolence, subjects with TEAE (healthy subjects [2]; single sc 120 μg, n = 6): 4 | Catheter site haematoma, subjects with TEAE (healthy subjects [2]; total eneboparatide, n = 39): 3 (7.7) n (%) | Decreased appetite, subjects with TEAE (healthy subjects [2]; total eneboparatide, n = 39): 6 (15.4) n (%) | Fatigue, subjects with TEAE (healthy subjects [2]; total eneboparatide, n = 39): 3 (7.7) n (%) | Headache, subjects with TEAE (healthy subjects [2]; total eneboparatide, n = 39): 8 (20.5) n (%) | Injection site erythema, subjects with TEAE (healthy subjects [2]; total eneboparatide, n = 39): 2 (5.1) n (%) | Injection site pain, subjects with TEAE (healthy subjects [2]; total eneboparatide, n = 39): 3 (7.7) n (%) | Nausea, subjects with TEAE (healthy subjects [2]; total eneboparatide, n = 39): 8 (20.5) n (%) | Somnolence, subjects with TEAE (healthy subjects [2]; total eneboparatide, n = 39): 5 (12.8) n (%) | nausea, subjects (healthy subjects [2]; transient, at 60, 90 and 120 μg): eight
